Reference: ChEMBL document CHEMBL1201862, “PubChem BioAssay data set” (2004)
The source made the active and inactive calls.

Key:
[1] = biological target: Mitogen-activated protein kinase 10 (Homo sapiens, UniProt P53779); experiment: Dose response biochemical screening assay for inhibitors of c-Jun N-Terminal Kinase 3 (JNK3). [Related pubchem assays: 746 ]
Prothrombin = Prothrombin (Homo sapiens, UniProt P00734); experiment: Thrombin 1536 HTS Dose Response Confirmation. [Related pubchem assays: 1046 (Thrombin 1536 HTS; hits were confirmed in this assay)]; type: functional
[2] = inhibitors of intracellular T. cruzi replication, confirmation, NIH3T3 host cells, beta-gal luminescence (AID 2044); type: functional, cell-based;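 also: intracellular parasites grown in NIH/3T3 mouse fibroblasts as host cells; luminescent beta-galactosidase reporter signal from transgenic T. cruzi replicating inside host cells; inhibitors lower the luminescence signal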
[3] = cytotoxicity toward NIH3T3 fibroblasts, dose response, counter-screen, cell-based, ATP luminescence, mouse fibroblasts (AID 2010); type: functional;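 also: cells exposed to compound for about 90 hours before reading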
[4] = biological target: Disintegrin and metalloproteinase domain-containing protein 17 (Homo sapiens, UniProt P78536); experiment: exosite inhibitors of ADAM17, dose response, biochemical (AID 743260)
[5] = ADAM10 protease inhibitors, dose response, selectivity assay for ADAM17 exosite inhibitor project, biochemical, FRET peptide substrate, recombinant human ADAM10 (AID 743259);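 also: ADAM10 enzyme cleaving a FRET peptide substrate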
[6] = biological target: T1, Luciferin 4-monooxygenase (Photinus pyralis, UniProt P08659); experiment: Counter Screen for Luciferase-based Assay Positives. [Related pubchem assays: 620, 618, 411 ]
[7] = Luminescence Cell-Based Dose Response HTS to Identify Inhibitors of 5'UTR Stem-Loop Driven Prion Protein mRNA Translation in H4 Neuroglioblastoma Cells. [Related pubchem assays: 1827 (Project Summary), 1813 (Primary HTS)]; type: functional
[8] = biological target: T2, Heat shock factor protein 1 (Mus musculus, UniProt P38532); experiment: inhibition of MG132-induced HSE-luciferase signal, confirmation, cell-based, NIH3T3, luminescence, dose retest (AID 2382); type: functional;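 also: NIH3T3 fibroblasts with HSF1-driven luciferase reporter stressed by proteasome inhibitor MG132; luminescence from HSF1-driven luciferase expression after 8 hours of MG132 stress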
T2 sequence (P38532 whole entry): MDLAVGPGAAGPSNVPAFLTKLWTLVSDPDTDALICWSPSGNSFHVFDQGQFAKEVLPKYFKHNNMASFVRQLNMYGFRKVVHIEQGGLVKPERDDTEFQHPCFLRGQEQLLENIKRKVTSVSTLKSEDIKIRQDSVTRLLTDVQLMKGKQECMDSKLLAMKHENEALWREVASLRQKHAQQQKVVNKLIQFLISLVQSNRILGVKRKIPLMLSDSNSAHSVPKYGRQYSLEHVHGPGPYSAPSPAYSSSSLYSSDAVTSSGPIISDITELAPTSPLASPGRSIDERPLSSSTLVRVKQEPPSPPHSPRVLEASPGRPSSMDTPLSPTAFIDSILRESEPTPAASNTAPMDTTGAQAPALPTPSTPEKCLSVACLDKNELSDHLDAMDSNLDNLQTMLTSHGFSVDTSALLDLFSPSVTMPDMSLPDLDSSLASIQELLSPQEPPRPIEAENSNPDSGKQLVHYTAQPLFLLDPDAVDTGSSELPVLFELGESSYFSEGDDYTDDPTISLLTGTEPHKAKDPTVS

[9] = inhibitors of SNCA 5'UTR-driven reporter translation, confirmation, H4 neuroglioma cells, luminescence (AID 1988); type: functional, cell-based
[10] = biological target: T1, Luciferin 4-monooxygenase; experiment: firefly luciferase enzyme inhibitors, dose response, biochemical, luminescence (AID 1891)
[11] = Luminescence Cell-Based Dose Confirmation HTS to Identify Inhibitors of Platelet Dense Granule Release. [Related pubchem assays: 1663 (Primary HTS), 1678 (Summary of Project)]; type: functional
HT-1080 = experiment: cytotoxicity in HT1080 fibrosarcoma cells, cell-based, fluorescence readout (AID 620); type: functional; conditions: Homo sapiens
[12] = Luminescence-based cell-based high throughput dose response assay to identify activators of the DAF-12 from the parasite S. stercoralis (ssDAF-12).; type: functional
[13] = biological target: T3, Oxysterols receptor LXR-beta (Homo sapiens, UniProt P55055); experiment: LXR agonists, Gal4 luciferase reporter, dose response, counter-screen for ssDAF-12 agonist project, cell-based, luminescence, HEK293, S. stercoralis campaign (AID 720737); type: functional; conditions: read-out: IC50 (the source's name)
T3 sequence (P55055 whole entry): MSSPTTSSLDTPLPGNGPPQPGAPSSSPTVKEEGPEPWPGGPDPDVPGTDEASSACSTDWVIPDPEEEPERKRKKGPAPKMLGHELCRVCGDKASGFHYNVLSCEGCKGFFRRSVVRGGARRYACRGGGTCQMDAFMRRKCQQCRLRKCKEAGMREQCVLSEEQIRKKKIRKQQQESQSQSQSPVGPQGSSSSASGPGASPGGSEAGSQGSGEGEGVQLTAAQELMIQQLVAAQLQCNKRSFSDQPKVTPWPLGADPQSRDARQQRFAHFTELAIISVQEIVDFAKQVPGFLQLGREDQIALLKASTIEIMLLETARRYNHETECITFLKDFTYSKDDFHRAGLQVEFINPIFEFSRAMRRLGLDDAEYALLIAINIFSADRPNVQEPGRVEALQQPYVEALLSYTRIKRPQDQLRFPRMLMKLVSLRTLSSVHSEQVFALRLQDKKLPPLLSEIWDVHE

Paired box protein Pax-8 = Paired box protein Pax-8 (Homo sapiens, UniProt Q06710); experiment: inhibitors of PAX8-driven TPO luciferase reporter, dose response, RMG-I cells, cherry-pick (AID 687027); type: functional, cell-based;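 also: luciferase reporter driven by Pax8 target thyroperoxidase promoter measured by SteadyGlo luminescence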
[14] = A2780 ovarian cancer cell cytotoxicity, dose response, cytotoxicity control, plate reader, dry powder samples (AID 743046); type: functional, cell-based
[15] = cytotoxicity in OVCAR8 ovarian cancer cells, dose response, PAX8 project, cell-based, plate reader, dry powder samples (AID 743197); type: functional; conditions: OVCAR-8
[16] = inhibitors of HIV Env-driven cell fusion, dose response, cherry-pick (AID 652057); type: functional, cell-based
[17] = CEM21 lymphoblast cell cytotoxicity, dose response, cytotoxicity control for viral fusion inhibitor project, CellTiter-Glo luminescence, cherry-picked (AID 652042); type: functional, cell-based;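 also: potency for signal decrease meaning cytotoxicity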
[18] = ZM109 Env clade C HIV-1 fusion inhibitors, dose response, HeLa effector, CEM target cells, luciferase, cherry-pick (AID 652058); type: functional, cell-based
[19] = inhibitors of clade B AD8 Env fusion, dose response, cell-based, cherry-pick (AID 652062); type: functional;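 also: luciferase signal from cell-cell fusion driven by HIV-1 clade B AD8 Env; potency is for inhibitors of fusion seen as a drop in luminescence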
Estrogen receptor = biological target: T4, Estrogen receptor (Homo sapiens, UniProt P03372);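 also: potency for inhibiting coactivator peptide recruitment to the receptor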
T4 sequence (P03372 whole entry): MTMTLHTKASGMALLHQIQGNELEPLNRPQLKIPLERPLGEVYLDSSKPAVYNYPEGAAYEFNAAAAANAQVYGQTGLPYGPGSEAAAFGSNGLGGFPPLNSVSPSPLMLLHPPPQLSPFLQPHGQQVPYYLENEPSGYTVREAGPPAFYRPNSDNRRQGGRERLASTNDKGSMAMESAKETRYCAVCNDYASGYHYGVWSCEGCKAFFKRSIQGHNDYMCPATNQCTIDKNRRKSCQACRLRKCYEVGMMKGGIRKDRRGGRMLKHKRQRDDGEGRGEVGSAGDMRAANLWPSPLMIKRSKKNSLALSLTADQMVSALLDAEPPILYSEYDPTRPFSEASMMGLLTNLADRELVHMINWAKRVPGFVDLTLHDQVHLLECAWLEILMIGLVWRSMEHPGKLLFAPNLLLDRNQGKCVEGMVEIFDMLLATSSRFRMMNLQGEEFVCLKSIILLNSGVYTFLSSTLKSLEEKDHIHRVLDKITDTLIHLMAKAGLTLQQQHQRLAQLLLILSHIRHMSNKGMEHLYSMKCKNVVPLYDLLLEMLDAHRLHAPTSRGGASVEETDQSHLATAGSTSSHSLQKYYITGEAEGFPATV

[20] = NIH:OVCAR-3 ovarian cancer cell cytotoxicity, dose response, PAX8 inhibitor project, plate reader, dry powder samples (AID 743044); type: functional, cell-based
[21] = IGROV1 ovarian cancer cell cytotoxicity, dose response, PAX8 inhibitor project, plate reader, dry powder samples (AID 743043); type: functional, cell-based; conditions: IGROV-1
[22] = P. falciparum 3D7-ScDHODH growth inhibitors, dose response, SYBR Green, dry powder samples (AID 1159570); type: functional, cell-based;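 also: parasite growth measured after 72 hours of compound exposure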
[23] = HepG2 cell cytotoxicity, dose response, cytotoxicity control, plate reader, dry powder samples (AID 1159569); type: functional, cell-based;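 also: inhibitor potency with signal falling toward the positive control level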
[24] = P. falciparum Dd2 growth inhibitors, dose response, SYBR Green, cherry-picked samples (AID 1159567); type: functional, cell-based
[25] = P. falciparum Dd2 growth inhibitors, dose response, SYBR Green, dry powder samples (AID 1159566); type: functional, cell-based;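 also: potency for growth inhibition with lower SYBR green DNA signal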
[26] = P. falciparum ATP4 D1247Y mutant growth inhibitors, dose response, NITD609-resistant line, SYBR Green, dry powder (AID 1159571); type: functional, cell-based;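 also: parasites synchronized at ring stage by sorbitol before testing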
[27] = P. falciparum late gametocyte killing, dose response, luminescence (AID 1117278); type: functional, cell-based;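 also: gametocytes exposed to compound for 24 hours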
[28] = Jurkat T cell cytotoxicity, dose response, cytotoxicity control for P. falciparum gametocyte viability project, luminescence (AID 1117277); type: functional, cell-based;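 also: potency reflects loss of cellular ATP meaning fewer viable cells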
[29] = microbe, parasite or virus in culture; type: functional; conditions: Mycobacterium tuberculosis
[30] = biological target: FAD-linked sulfhydryl oxidase ALR (Homo sapiens, UniProt P55789); experiment: inhibitors of human ALR sulfhydryl oxidase, dose response, biochemical, H2O2 detection, luminescence, cherry-pick (AID 493248)
INS1 = experiment: beta cell apoptosis inhibitors, cytokine rescue, dose response, luminescence, retest (AID 449756); type: functional, cell-based; conditions: Rattus norvegicus;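 also: cell death triggered by IL-1 beta plus TNF-alpha plus IFN-gamma mixture; protective hits raise ATP signal compared with cytokine alone wells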
[31] = off-target signal loss in HeLa-CEM21 co-culture – HeLa F-luc CTL cells, cherry-picked, counter-screen for HIV-1 Env fusion inhibitor project, dose response (AID 652040); type: functional, cell-based;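 also: potency for signal decrease marking cytotoxic or nonspecific inhibition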

T1 sequence (P08659 whole entry): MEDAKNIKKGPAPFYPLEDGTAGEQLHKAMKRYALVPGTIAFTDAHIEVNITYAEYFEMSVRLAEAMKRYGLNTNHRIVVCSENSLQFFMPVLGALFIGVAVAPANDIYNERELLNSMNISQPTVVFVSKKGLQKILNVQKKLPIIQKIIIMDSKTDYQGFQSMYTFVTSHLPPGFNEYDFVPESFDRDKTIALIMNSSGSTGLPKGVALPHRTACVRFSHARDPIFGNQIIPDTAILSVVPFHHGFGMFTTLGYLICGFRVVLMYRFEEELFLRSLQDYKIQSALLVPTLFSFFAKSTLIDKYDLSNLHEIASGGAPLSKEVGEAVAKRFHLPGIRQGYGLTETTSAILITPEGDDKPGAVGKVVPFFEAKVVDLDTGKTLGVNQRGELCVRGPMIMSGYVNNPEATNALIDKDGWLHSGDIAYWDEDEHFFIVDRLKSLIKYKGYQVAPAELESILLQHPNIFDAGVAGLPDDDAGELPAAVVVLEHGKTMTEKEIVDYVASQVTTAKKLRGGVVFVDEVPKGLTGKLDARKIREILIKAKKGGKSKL
Mitogen-activated protein kinase 10, sequence (P53779 whole entry): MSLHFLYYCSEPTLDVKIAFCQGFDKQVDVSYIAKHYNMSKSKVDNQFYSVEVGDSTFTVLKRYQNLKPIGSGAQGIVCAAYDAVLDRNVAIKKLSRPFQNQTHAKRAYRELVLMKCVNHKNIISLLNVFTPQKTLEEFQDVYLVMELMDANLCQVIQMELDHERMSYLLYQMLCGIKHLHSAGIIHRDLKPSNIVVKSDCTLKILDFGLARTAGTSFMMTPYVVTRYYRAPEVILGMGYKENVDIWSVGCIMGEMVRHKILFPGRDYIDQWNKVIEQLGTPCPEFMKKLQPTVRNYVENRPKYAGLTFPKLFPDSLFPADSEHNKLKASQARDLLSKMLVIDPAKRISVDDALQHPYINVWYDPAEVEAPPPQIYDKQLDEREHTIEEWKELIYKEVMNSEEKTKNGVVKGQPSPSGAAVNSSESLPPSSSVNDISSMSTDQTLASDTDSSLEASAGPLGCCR
Disintegrin and metalloproteinase domain-containing protein 17, sequence (P78536 whole entry, the tested form may be a part): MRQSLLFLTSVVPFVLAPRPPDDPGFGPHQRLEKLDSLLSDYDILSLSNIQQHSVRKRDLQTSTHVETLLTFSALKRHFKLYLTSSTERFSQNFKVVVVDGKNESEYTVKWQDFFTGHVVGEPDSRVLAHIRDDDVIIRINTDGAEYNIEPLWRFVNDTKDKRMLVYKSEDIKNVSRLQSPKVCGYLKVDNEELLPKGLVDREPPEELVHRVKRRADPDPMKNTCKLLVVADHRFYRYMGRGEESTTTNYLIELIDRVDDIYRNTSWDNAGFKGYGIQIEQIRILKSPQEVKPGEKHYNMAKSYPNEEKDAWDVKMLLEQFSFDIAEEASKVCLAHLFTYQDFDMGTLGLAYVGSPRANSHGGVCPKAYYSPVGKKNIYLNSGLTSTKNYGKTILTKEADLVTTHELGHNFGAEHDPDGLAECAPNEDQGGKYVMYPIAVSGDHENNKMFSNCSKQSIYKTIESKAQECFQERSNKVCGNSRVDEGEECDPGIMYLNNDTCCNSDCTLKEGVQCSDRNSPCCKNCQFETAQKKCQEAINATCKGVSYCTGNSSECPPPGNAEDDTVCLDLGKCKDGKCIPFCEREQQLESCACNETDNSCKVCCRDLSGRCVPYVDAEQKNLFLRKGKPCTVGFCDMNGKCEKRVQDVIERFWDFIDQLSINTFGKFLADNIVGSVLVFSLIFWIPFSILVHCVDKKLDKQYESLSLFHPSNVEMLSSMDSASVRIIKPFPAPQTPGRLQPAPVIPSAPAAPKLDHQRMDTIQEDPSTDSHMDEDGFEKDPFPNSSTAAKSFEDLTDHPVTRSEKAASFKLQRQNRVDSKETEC
Paired box protein Pax-8, sequence (Q06710 whole entry): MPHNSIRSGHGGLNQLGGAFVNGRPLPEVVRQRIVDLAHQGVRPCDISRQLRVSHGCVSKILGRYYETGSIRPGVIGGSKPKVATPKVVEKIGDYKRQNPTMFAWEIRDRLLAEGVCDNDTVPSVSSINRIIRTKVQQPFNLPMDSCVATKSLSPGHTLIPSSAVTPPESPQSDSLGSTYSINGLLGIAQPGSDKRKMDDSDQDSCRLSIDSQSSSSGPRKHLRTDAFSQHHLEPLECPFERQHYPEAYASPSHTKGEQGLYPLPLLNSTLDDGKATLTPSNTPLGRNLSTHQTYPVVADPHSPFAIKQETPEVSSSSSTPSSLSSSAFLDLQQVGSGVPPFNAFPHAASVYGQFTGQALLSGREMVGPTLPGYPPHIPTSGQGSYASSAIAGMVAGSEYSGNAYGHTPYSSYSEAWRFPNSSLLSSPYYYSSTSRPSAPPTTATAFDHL
FAD-linked sulfhydryl oxidase ALR, sequence (P55789 whole entry): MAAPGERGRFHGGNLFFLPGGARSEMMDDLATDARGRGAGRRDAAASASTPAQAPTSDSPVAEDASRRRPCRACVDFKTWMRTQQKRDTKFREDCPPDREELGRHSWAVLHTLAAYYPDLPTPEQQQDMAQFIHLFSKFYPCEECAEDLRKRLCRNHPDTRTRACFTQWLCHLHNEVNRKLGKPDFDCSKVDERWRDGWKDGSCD

COc1ccc2nc(NC(=O)Cc3ccc(OC)c(S(=O)(=O)N4CCOCC4)c3)sc2c1
IC50 [1]: 28.1 µM (not active)

Cc1ccc(NC(=O)c2ccc3ccccc3n2)cc1S(=O)(=O)N1CCOCC1
IC50 (Prothrombin): 40.9 µM (active)

CC(C)Nc1nc(NC(C)C)nc(N(C#N)CCOc2ccc(Cl)cc2Cl)n1
EC50 [2]: 1.4 µM (active) | EC50 [3]: > 60 µM (not active) | IC50 [4]: > 69.5 µM (inactive) | IC50 [5]: 13.5 µM (inactive)

CN(C)S(=O)(=O)c1cccc(NC(=O)c2cc(-c3cccs3)nn2-c2cccc(Cl)c2)c1
IC50 [4]: > 69.5 µM (inactive) | IC50 [5]: > 69.5 µM (inactive)

COc1ccc(/N=C/C2=C(O)c3ccccc3C2=O)c(OC)c1
EC50 [6]: 50.2 µM (active) | EC50 [7]: 11.7 µM (active) | EC50 [8]: 2.42 µM (active) | EC50 [9]: 8.03 µM (active) | EC50 [10]: 1.21 µM (active) | EC50 [11]: 3.47 µM (active) | EC50 (HT-1080): > 50 µM (not active)

Cc1ccc(NCc2nc3ccccc3n2C)cc1
IC50 [12]: > 67.5 µM (inactive) | EC50 [13]: > 67.5 µM (inactive)

Cc1ccccc1-c1ccc2c(c1)O[C@H](CN(C)C(=O)Nc1ccc(C(F)(F)F)cc1)[C@H](C)CN([C@H](C)CO)S2(=O)=O
AC50 (Paired box protein Pax-8): 9.06 µM (active) | AC50 [14]: 14.3 µM (active) | AC50 [15]: > 70 µM (inactive)

CO[C@H]1CN(C)C(=O)c2ccc(NC(=O)C3CC3)cc2OC[C@H](C)N(Cc2cc(F)ccc2F)C[C@@H]1C
AC50 [16]: 0.851 µM (active) | AC50 [17]: 59.9 µM (active) | AC50 [18]: 0.668 µM (active) | AC50 [19]: 1.5 µM (active)

COC(=O)CN1C(=O)C(O)(CC(=O)c2ccc(Cl)cc2)c2ccccc21 (stereo unspecified)
IC50 (Prothrombin): > 50 µM (not active)

Cc1nc2cccc(C(=O)NCc3ccccc3)c2o1
IC50 (Estrogen receptor): 48.4 µM (not active) | IC50 [1]: 45.5 µM (not active)

c1ccc(-c2n[nH]c3c2CCC3)cc1
IC50 [1]: 50.9 µM (not active)

COc1ccc2c3c(n(C)c2c1)[C@H](CO)N(C(=O)Nc1ccc(F)cc1)CC31CCN(C(=O)c2ccc3c(c2)OCO3)CC1
AC50 (Paired box protein Pax-8): 6.51 µM (active) | AC50 [14]: 22.5 µM (active) | AC50 [20]: 28.6 µM (active) | AC50 [21]: 57.7 µM (active) | AC50 [15]: 4.33 µM (active) | AC50 [22]: 1.2 µM (active) | AC50 [23]: > 100 µM (inactive) | AC50 [24]: 1.79 µM (active) | AC50 [25]: 0.892 µM (active) | AC50 [26]: 0.75 µM (active)

CCc1ccc(CN(C)Cc2nc(COc3ccccc3)no2)nc1
IC50 [27]: > 109 µM (inactive) | IC50 [28]: > 83.3 µM (inactive)

CC(=O)Nc1ccc(S(=O)(=O)Nc2ccc(N3CCCCC3)cc2)cc1
CC50 [29]: 27.3 µM (active) | AC50 [30]: 2.07 µM (active) | AC50 (INS1): 3.64 µM (active) | AC50 [16]: 10.4 µM (active) | AC50 [17]: 23.4 µM (active) | AC50 [18]: 1.18 µM (active) | AC50 [31]: 22.6 µM (active) | AC50 [19]: 17.8 µM (active)

CC(=O)Oc1ccc(C(=O)Nc2cccc(C(=O)c3ccc(C)c(C)c3)c2)cc1
IC50 [4]: > 69.5 µM (inactive) | IC50 [5]: > 69.5 µM (inactive)

Cc1cccc(-n2ncc3c(N4CCCC4)ncnc32)c1
EC50 [6]: 1.02 µM (active) | EC50 (HT-1080): > 50 µM (not active)

O=C1c2ccccc2C(O)N1Cc1cccs1 (stereo unspecified)
IC50 [27]: > 109 µM (inactive) | IC50 [28]: > 83.3 µM (inactive)

COC(=O)c1ccccc1NC(=O)NCc1ccncc1
IC50 [12]: > 67.5 µM (inactive) | EC50 [13]: > 67.5 µM (inactive)
